Results on 11 molecules are retold here after patent publication US5030647A, “Anti-inflammatory thienylbenzylamine compounds” (Boehringer Ingelheim Pharmaceuticals, Inc., priority 1990, dated 1991).

In general, inhibition refers to the change of the read-out against control, counted positive when it falls.

The test system of one experiment is human PMN. Description: Chemotaxis of human peripheral leukocytes (human PMN chemotaxis, FMLP as chemoattractant). It counts as cell-based. The note with it: Leukocyte, FMLP 1×10^-8 M; for inhibition at 1 µM: read-out: PERCENT INHIBITION (human PMN chemotaxis) 1 μM; for inhibition at 0.01 µM: read-out: PERCENT INHIBITION (human PMN chemotaxis) 0.01 μm. How it is done: A) Equal parts of citrated peripheral venous blood drawn from a normal volunteer were mixed with saline containing 6% dextran. The mixture was allowed to sediment for 30-40 minutes in a 50 ml polypropylene centrifuge tube. B) The plasma was decanted and centrifuged at 1500 rpm for 7 minutes and washed with saline. C) The supernatant was decanted and the contaminating red blood cells were eliminated by adding ice cold lysing solution and allowing the cell suspension to stand on ice for 5 minutes. […] E) The tubes were centrifuged at 400g for 30 minutes at room temperature. F) The supernatant was decanted and the PMNs (pelleted on the bottom of the tubes) were washed with saline and with Hanks buffer. The cells were adjusted to a final concentration of 3×10^6 cells/ml in Hanks buffer containing 0.5% BSA. 1) Chemoattractant: serial dilution was prepared of the stocks (10^-3 M) N-Formyl-methionyl-leucylphenylalanine in Hanks buffer and 130 μl of 1×10^-8 M solution was pipetted into the lower bottom chamber. The bottom chamber of the negative control was filled with saline. 2) Placed Millipore membranes to completely cover the wells and allowed the liquid to absorb. 3) Placed on upper chamber and tighten retaining nuts. 1) Sample preparation: Mixed equal volume of sample diluted in Hanks buffer containing […] and cell suspension in a test tube prior to pipetting 200 μl into appropriate duplicate chambers. 2) Incubated chambers at 37° C. for 40-60 minutes. 10) Three to five fields per membrane were counted with the aid of the Image Analyser (optimal 40-10). Special effort was made to select a standard for evaluating the cell monolayer in which the distribution of cells in the field of view is uniform. The number of cells at each […] level beneath the selected monolayer was then counted and the chemotactic index (CI) calculated by multiplying the individual cell count at each level by their corresponding depth of penetration, and taking the sum of these numbers. 11) The results in Table II are recorded as percent inhibition. Percent inhibition by each thienylbenzylamime was calculated as follows: [formula] The CI of the control was determined by conducting the assay with N-formyl-methionyl-leucylphenylalanine (FMLP) alone without any thienlbenzylamine. The background was determined by conducting the assay without any FMLP.

The next experiment has as its system paw swelling. Description: Reverse passive Arthus reaction, inhibition of paw swelling after oral dosing. It counts as in vivo. The note with it: Rattus norvegicus, po, 30 mg/kg oral, rats. How it is done:
The reverse passive Arthus reaction is initiated by the interaction of antigen and antibody resulting in the formation of a precipitating immune complex, followed by fixation of complement, accumulation of leukocytes, edema and hemorrhage. The immunopathology of rheumatoid arthritis involves many of the parameters found in this reaction. Test groups (5 rats per group) are dosed orally with compounds one hour prior to the sub-plantar injection into the right hind paw of rabbit anti-ovalbumin antibody (50 μg/0.1 ml). Immediately afterwards, ovalbumin (Sigma, #5503) (5 mg/0.2 ml) is injected i.v. via the tail vein. The right hind paw volume is measured at hourly intervals, from one to four hours after the injection of the immune reactants. The change in paw volume for each animal is calculated by subtracting zero hour paw volume (before injection) from the paw volume at the time of measurement. The mean of these values is calculated for each group. Results are expressed in Table I below as percent inhibition of paw swelling compared to untreated controls.

Where [1] appears, read: 2 h, 2 hours, read-out: % INHIBITION (of paw swelling) HOUR 2.
The mark [2] stands for this setting: 3 h, 3 hours, read-out: % INHIBITION (of paw swelling) HOUR 3.
Where [3] appears, read: 4 h, 4 hours, read-out: % INHIBITION (of paw swelling) HOUR 4.

Molecules are shown by their SMILES. Counter-ions that a name gives are not always drawn. Like-named read-outs stand apart in the source and are kept apart here.

On to `CCOC(c1ccc(Cl)s1)c1ccccc1CN(C)C` (stereo not shown) [Compound 7, 5-chloro-2-[(2-dimethylaminomethylphenyl)ethoxymethyl]thiophene], for which the inhibition at 1 µM with human PMN worked out at 41%. Further, in the experiment on human PMN, the inhibition at 0.01 µM is 37%. The inhibition in vivo at 30 mg/kg amounted to 24.2% in the experiment on paw swelling (setting [1]), 0% in the experiment with paw swelling (setting [2]) and 0% in the experiment on paw swelling (setting [3]).
Turning to `CN(CCO)Cc1ccccc1C(O)c1ccc(Cl)s1` (stereo not shown) [Compound 8], the inhibition at 1 µM with human PMN was 42%. Moreover, the inhibition at 0.01 µM in the experiment with human PMN was 35%. Also, the inhibition in vivo at 30 mg/kg in the experiment on paw swelling (setting [1]) stood at 26.9%; in the experiment with paw swelling (setting [2]) it was 18.2%; in the experiment with paw swelling (setting [3]), 2.8%.
In the case of `CN(C)Cc1ccccc1C(O)c1csc(Cl)c1` (stereo not shown) [Compound 24, 5-chloro-3-[(2-N,N-dimethylaminomethylphenyl)hydroxymethyl]thiophene hydrochloride], in the experiment on human PMN, the inhibition at 1 µM came to 19%. For the same molecule, the inhibition in vivo at 30 mg/kg in the experiment with paw swelling (setting [1]) is 51%; in the experiment on paw swelling (setting [2]), 54%; in the experiment with paw swelling (setting [3]) it was 53%.
As for `CN(C)Cc1ccccc1C(O)c1cccs1` (stereo not shown) [Compound 3, 2-[(2-Dimethylaminomethylphenyl)hydroxymethyl]thiophene], the inhibition at 1 µM with human PMN was determined as 39%. Besides, in the experiment with human PMN, the inhibition at 0.01 µM turned out to be 14%. Moreover, the inhibition in vivo at 30 mg/kg came to 43.3% with paw swelling (setting [1]), 22.8% in the experiment with paw swelling (setting [2]) and 0% in the experiment on paw swelling (setting [3]).
For the molecule `CN(C)Cc1ccccc1C(O)c1ccsc1` (stereo not shown) [Compound 21], the inhibition at 1 µM with human PMN turned out to be 54%. In addition, in the experiment on human PMN, the inhibition at 0.01 µM worked out at 35%. Moreover, the results for the inhibition in vivo at 30 mg/kg in the experiment on paw swelling (setting [1]), with paw swelling (setting [2]) and with paw swelling (setting [3]) were 39%, 18% and 30%, respectively.
For `CN(C)Cc1ccccc1C(O)c1csc(Br)c1` (stereo not shown) [Compound 23, 5-bromo-3-[(2-N,N-dimethylaminomethylphenyl)hydroxymethyl] thiophene hydrochloride], in the experiment on human PMN, the inhibition at 1 µM stood at 34%. The figures for the inhibition in vivo at 30 mg/kg with paw swelling (setting [1]), in the experiment on paw swelling (setting [2]) and in the experiment with paw swelling (setting [3]) were 72%, 66% and 44%, respectively.
With `CN(C)Cc1ccccc1C(O)c1ccsc1Cl` (stereo not shown) [Compound 22, 2-chloro-3-[(2-N,N-dimethylaminomethylphenyl)hydroxymethyl]thiophene hydrochloride], the inhibition at 1 µM in the experiment with human PMN was 29%. Further, the values for the inhibition in vivo at 30 mg/kg in the experiment with paw swelling (setting [1]), with paw swelling (setting [2]) and in the experiment with paw swelling (setting [3]) were 22%, 0% and 0%, respectively.
For `CN1Cc2ccccc2C1c1ccc(Cl)s1` (stereo not shown) [Compound 14], in the experiment with human PMN, the inhibition at 1 µM came to 51%. The inhibition at 0.01 µM in the experiment on human PMN amounted to 0%. The inhibition in vivo at 30 mg/kg in the experiment on paw swelling (setting [1]) is 64.4%; with paw swelling (setting [2]), 49.9%; in the experiment with paw swelling (setting [3]) it was 17.8%.
As to `CN(C)Cc1ccccc1C(C)(O)c1ccc(Cl)s1` (stereo not shown) [Compound 33, N,N-dimethyl-2-[1-(5-chlorothien-2-yl)-1-hydroxyethyl]benzylamine hydrochloride], the inhibition at 1 µM with human PMN was found to be 26%. For the same molecule, the inhibition at 0.01 µM in the experiment on human PMN turned out to be 26%. The inhibition in vivo at 30 mg/kg is 66% in the experiment on paw swelling (setting [1]), 60% in the experiment with paw swelling (setting [2]) and 40% in the experiment on paw swelling (setting [3]).
Turning to `CN(C)Cc1ccccc1C(=O)c1ccc(Cl)s1` [Compound 11, 5-chloro-2-(2-dimethylaminomethylbenzoyl)thiophene], the inhibition at 1 µM in the experiment on human PMN amounted to 33%. In addition, in the experiment with human PMN, the inhibition at 0.01 µM was 37%. Further, the figures for the inhibition in vivo at 30 mg/kg in the experiment with paw swelling (setting [1]), with paw swelling (setting [2]) and in the experiment with paw swelling (setting [3]) were 40.5%, 18.8% and 1.5%, respectively.
With `COC(c1ccc(Cl)s1)c1ccccc1CN(CCO)CCO` (stereo not shown) [Compound 9, 5-chloro-2-[2-(N,N-diethanolaminomethyl-phenyl)methoxymethyl]thiophene], in the experiment with human PMN, the inhibition at 1 µM was determined as 49%. In the experiment with human PMN, the inhibition at 0.01 µM turned out to be 23%. The inhibition in vivo at 30 mg/kg turned out to be 20.8% in the experiment with paw swelling (setting [1]), 3.6% with paw swelling (setting [2]) and 0% in the experiment on paw swelling (setting [3]).
